Experimental data: patent US11365217B2, “Peptides for treating telomere dysfunction-associated diseases and uses thereof” (priority 2018, dated 2022)
“Also recorded” adds a separate entry of the source. Non-standard residues stand in square brackets, D forms with d. No end group written: not given here.

What was measured:
[1] = system: carbon tetrachloride-induced liver fibrosis in C57BL/6 mice; assay: DST8 in carbon tetrachloride-induced liver fibrosis in mice; assay type: in vivo; conditions: 1 mg/kg intraperitoneal weekly, 4 weeks, Masson staining and Western Blot, control GE8
Protocol: 12 6 week old wild female C57BL/6 mice were equally divided into four groups, where two groups of mice were intraperitoneally injected with a solution of 10% carbon tetrachloride in olive oil three times a week (on every Monday, Wednesday and Friday, 5 μL per gram of body weight), and the other two groups of mice were intraperitoneally injected with an equal amount of olive oil as control. The two groups injected with carbon tetrachloride were intraperitoneally injected with DST8 (SerArgAsnGlyThrGluGluThr, in D-amino acids), 1 mg per kilogram of body weight) and GE8 (SEQ ID NO:24), respectively, 4 hours before the first injection of carbon tetrachloride in each week. The two control groups were also intraperitoneally injected with DST8 (1 mg per kilogram of body weight) and GE8, respectively, 4 hours before the first injection of olive oil in each week. After 4 consecutive weeks of administration, the liver was isolated, embedded with paraffin, sectioned and subjected to Masson staining and Western Blot analysis.

[2] = system: Human cervical carcinoma cells Hela; assay: Telomere DNA damage in Hela cells under X-ray irradiation, detected by FISH; assay type: cell-based; conditions: peptide 4 h; for telomere DNA damage caused by irradiation of X rays: 5-Gy X ray for 1 h
Protocol: Human cervical carcinoma cells Hela were respectively treated with various peptides (as shown in SEQ ID NOs:1-26 in Table 1) for 4 h, and then the cells treated with the same peptide were divided into two groups, which were respectively subjected to 0-Gy and 5-Gy irradiation of X ray for 1 h and detected for telomere DNA damage using fluorescence in situ hybridization (FISH).

[3] = system: bleomycin-induced pulmonary fibrosis in mice; assay: ST8 in bleomycin-induced pulmonary fibrosis in mice (intratracheal perfusion); assay type: in vivo
Protocol: 4 hours later, the mice were all intratracheally perfused with bleomycin (3 mg per kilogram of body weight), and 21 days after the perfusion of peptide, the mice were subjected to endotracheal intubation for the detection of respiratory function. The type II cells were sorted by flow cytometry and calculated for the proportion. The lung tissue RNA was extracted and subjected to real-time quantitative PCR for the detection of mRNA expression of NG2, […], s100a4, α-SMA and Col6a, and the lung proteins were also extracted and detected by Western Blot for the expression of FBW7, TPP1, α-SMA and internal reference GAPDH. The lung tissues were embedded with paraffin, sectioned, subjected to Masson and H&E staining and detected by immunofluorescence assay for the expression of α-SMA. Moreover, 10 mg of lung tissues were employed for the determination of hydroxyproline content; and the telomere length of type II cells (SPC+telomere probe) was detected by FISH.

[4] = system: mice with overexpression of FBW7 in lung tissues; assay: ST8 in mice intratracheally perfused with FBW7-lentivirus (overexpression of FBW7 in lung); assay type: in vivo; conditions: control GE8
Protocol: 4 hours later, the two groups of mice perfused with ST8 were respectively intratracheally perfused with a control- or FBW7-lentivirus, and the two groups of mice perfused with GE8 were also respectively intratracheally perfused with the control- or FBW7-lentiviruses. The perfusion was performed every other 4 days in a total number of 4. On the fourth day after the fourth perfusion, the mice were subjected to endotracheal intubation for the detection of respiratory function. The type II cells were sorted by flow cytometry and calculated for the proportion. The lung tissue RNA was extracted and subjected to real-time quantitative PCR for the detection of mRNA expression of α-SMA, Col6a, and MMP3, and the lung proteins were also extracted and detected by Western Blot for the expression of FBW7, TPP1, SPC, α-SMA and internal reference GAPDH. The lung tissues were embedded with paraffin, sectioned, subjected to Masson and H&E staining and detected by immunofluorescence assay for the expression of α-SMA. Moreover, the proportion of lung type II epithelial cells (SPC positive cells) was obtained by immunofluorescence assay; and the telomere length of type II cells (SPC+telomere probe) was detected by FISH.

[5] = system: mice under X-ray irradiation; assay: DYK21 applied to dorsal skin of mice with or without X-ray irradiation (skin aging, weight loss, premature death)
Excerpt: 48 2-4 month old wild mice were equally divided into four groups, and the hair in a 2 cm×2 cm region on the back of each of the mice was removed. […] The mice were photographed and weighed every day, and sacrificed on the 8th day to collect the skin tissues.

[6] = system: bleomycin-induced pulmonary fibrosis in mice; assay: YK21 in bleomycin-induced pulmonary fibrosis in mice (intratracheal perfusion); assay type: in vivo
Protocol: The time program of this experiment was shown in FIG. 1E, specifically, 4 hours later, the mice were all intratracheally perfused with bleomycin (3 mg per kilogram of body weight), and 20 hours after the perfusion of bleomycin, two groups of mice were respectively received a second perfusion of YK21 and a second perfusion of YK21h. After 21 days of the first perfusion of peptide, the mice were all subjected to endotracheal intubation for the detection of respiratory function, and the lung tissue RNA was extracted and subjected to real-time quantitative PCR to detect the mRNA expression of TPP1 and SPC. The lung tissues were embedded with paraffin, sectioned, subjected to Masson and H&E staining and detected by immunofluorescence assay for the expression of α-SMA. Moreover, 10 mg of lung tissues were employed for the determination of hydroxyproline content; and the telomere length of alveolar epithelial type II stem cells (SPC+telomere probe) and the telomere DNA damage in lung tissues (53BP1+telomere probe) were detected by FISH.

[7] = dorsal skin application 7 days, 4-Gy X-ray daily, compared to DCTL1
[8] = lung tissue mRNA, real-time quantitative PCR, bleomycin mice, vs YK21h

SRNGTEET [DST8]
liver fibrosis caused by carbon tetrachloride [1]: prevent the liver fibrosis; also recorded: significantly inhibit

KTEETGNRSGRRRQRRKKRGY [DKY21]
telomere DNA damage caused by irradiation of X rays [2]: inhibitory effect

SRNGTEET [ST8]
telomere DNA damage caused by irradiation of X rays [2]: significantly inhibiting | respiratory dysfunction in mice caused by bleomycin ([3]; 1 mg/kg intratracheal, bleomycin 3 mg/kg, day 21, control GE8): alleviate | telomere length of type II cells ([3]; FISH, bleomycin mice, control GE8): extend the telomere | bleomycin-induced pulmonary fibrosis in mice ([3]; Masson, H&E, α-SMA, fibrosis marker mRNA, control GE8): inhibitory effect | FBW7 expression in lung ([3]; Western Blot, bleomycin mice, control GE8): inhibit FBW7 | proportion of lung type II epithelial cells ([3]; flow cytometry, bleomycin mice, control GE8): improved | respiratory dysfunction caused by the overexpression of FBW7 ([4]; 1 mg/kg intratracheal, FBW7-lentivirus perfused 4 times): significant role in alleviating | decrease in the proportion of type II epithelial cells caused by the overexpression of FBW7 ([4]; FBW7-lentivirus mice): significant role in alleviating | pulmonary fibrosis caused by the overexpression of FBW7 ([4]; FBW7-lentivirus mice): significant role in alleviating | reduction in the expression of TPP1 caused by the overexpression of FBW7 ([4]; FBW7-lentivirus mice): significant role in alleviating | telomere shortening caused by the overexpression of FBW7 ([4]; FISH, FBW7-lentivirus mice): significant role in alleviating

TyrGlyArgLysLysArgArgGluArgArgArgGlySerArgAsnGlyThrGluGluThrLys [DYK21] ([dY]G[dR][dK][dK][dR][dR][dE][dR][dR][dR]G[dS][dR][dN]G[dT][dE][dE][dT][dK])
telomere DNA damage caused by irradiation of X rays [2]: inhibitory effect | skin damage and fibrous tissue proliferation (skin fibrosis) caused by X-ray irradiation ([5]; H&E and Masson staining, 4-Gy X-ray daily for 7 days, vs DCTL1): completely free of skin fibrosis; also recorded: significant inhibitory effect | number of dermal stem cells ([5]; application to the dorsal skin of mice): significant increase | number of hair follicles ([5]; application to the dorsal skin of mice, irradiation not mentioned): significant increase | acute death caused by X-ray irradiation ([5]; compared to DCTL1): alleviated the acute death to some extent | life span under X-ray irradiation ([5]; compared to DCTL1): prolonged the life of some mice | weight loss caused by X-ray irradiation ([5]; compared to DCTL1): inhibited the weight loss | body weight [5, 7]: larger in body weight | number of hair follicles [5, 7]: more hair follicles | fibrosis area ([5]; skin, X-ray irradiation, vs DCTL1): smaller fibrosis area

YGRKKRRERRRGSRNGTEETK
telomere DNA damage at a basic level ([2]; 0-Gy): significantly reduce | telomere DNA damage caused by irradiation of X rays [2]: completely inhibit | respiratory function in mice ([6]; 1 mg/kg intratracheal, bleomycin 3 mg/kg, day 21, compared to control peptide YK21h): improve the lung respiratory function; also recorded: significantly improve | pulmonary fibrosis induced by bleomycin ([6]; 1 mg/kg intratracheal, bleomycin 3 mg/kg, day 21, hydroxyproline, Masson, H&E, α-SMA, vs YK21h): prevent the lung aging damage and pulmonary fibrosis; also recorded: inhibit | telomere length of type II epithelial cells ([6]; FISH (SPC+telomere probe), bleomycin mice, vs YK21h): extend telomere length; also recorded: increase | number of lung stem cells ([6]; intratracheal administration to mice in one time): increase the number of lung stem cells | expression of SPC [6, 8]: increase | expression of TPP1 [6, 8]: increase
